# Test results from PubChem BioAssay AID1745844 (Carcinogenic Potency Database (CPDB), 2022).
# Activity calls are given as the source filed them. The rule behind the calls is not given here.
# Tested on: rodent lifetime carcinogenesis bioassay, tumor incidence TD50
# Assay: carcinogenic potency in animals, long-term in vivo studies, CPDB compilation (AID 1745844)
compound,measurement,setting,value
CC(COc1ccc(C(C)(C)C)cc1)OS(=O)OCCCl (stereo not given),TD50,"mouse, strain B6AKF1, females, oral dosing, site: any site (literature study), lesion: several types, types named in the paper, dosed 80 weeks, study length 80 weeks",391 mg/kg/day
same,TD50,"mouse, strain B6AKF1, females, oral dosing, site: lung, lesion: adenoma, dosed 80 weeks, study length 80 weeks",432 mg/kg/day
same,TD50,"mouse, strain B6AKF1, males, oral dosing, site: liver, lesion: hepatoma, dosed 77 weeks, study length 77 weeks",15900 mg/kg/day
same,TD50,"mouse, strain B6C3F1, females, oral dosing, site: any site (literature study), lesion: several types, types named in the paper, dosed 77 weeks, study length 77 weeks",92.7 mg/kg/day
same,TD50,"mouse, strain B6C3F1, females, oral dosing, site: liver, lesion: hepatoma, dosed 77 weeks, study length 77 weeks",973 mg/kg/day
same,TD50,"mouse, strain B6C3F1, females, oral dosing, site: lung, lesion: adenoma, dosed 77 weeks, study length 77 weeks",973 mg/kg/day
same,TD50,"mouse, strain B6C3F1, males, oral dosing, site: any site (literature study), lesion: several types, types named in the paper, dosed 80 weeks, study length 80 weeks",103 mg/kg/day
same,TD50,"mouse, strain B6C3F1, males, oral dosing, site: liver, lesion: hepatoma, dosed 80 weeks, study length 80 weeks",158 mg/kg/day
same,TD50,"mouse, strain B6C3F1, males, oral dosing, site: liver, lesion: several types, types named in the paper, dosed 80 weeks, study length 80 weeks",126 mg/kg/day
same,TD50,"rat, strain CFN, both sexes, in feed, site: bile duct, lesion: adenoma, dosed 104 weeks, study length 104 weeks",1010 mg/kg/day
same,TD50,"rat, strain CFN, both sexes, in feed, site: liver, lesion: hyperplastic nodule, dosed 104 weeks, study length 104 weeks",61.8 mg/kg/day
same,TD50,"rat, strain Food and Drug Research Laboratories stock rats, both sexes, in feed, site: liver, lesion: several types, types named in the paper, dosed 93 weeks, study length 104 weeks",430 mg/kg/day
same,TD50,"rat, strain Osborne-Mendel, females, in feed, site: any site (literature study), lesion: benign tumor, dosed 104 weeks, study length 104 weeks",31.5 mg/kg/day (inactive)
same,carcinogen call,"rat, strain Osborne-Mendel, females, in feed, site: any site (literature study), lesion: malignant tumor, dosed 104 weeks, study length 104 weeks",negative (inactive)
same,carcinogen call,"rat, strain Osborne-Mendel, females, in feed, site: any site (literature study), lesion: several types, types named in the paper, dosed 117 weeks, study length 117 weeks",negative (inactive)
same,TD50,"rat, strain Osborne-Mendel, females, in feed, site: liver, lesion: hemangioma, dosed 117 weeks, study length 117 weeks",256 mg/kg/day (inactive)
same,carcinogen call,"rat, strain Osborne-Mendel, females, in feed, site: liver, lesion: one or several types, types not named, dosed 104 weeks, study length 104 weeks",negative (inactive)
same,TD50,"rat, strain Osborne-Mendel, males, in feed, site: any site (literature study), lesion: benign tumor, dosed 104 weeks, study length 104 weeks",64.7 mg/kg/day (inactive)
same,carcinogen call,"rat, strain Osborne-Mendel, males, in feed, site: any site (literature study), lesion: malignant tumor, dosed 104 weeks, study length 104 weeks",negative (inactive)
same,TD50,"rat, strain Osborne-Mendel, males, in feed, site: any site (literature study), lesion: malignant tumor, dosed 117 weeks, study length 117 weeks",101 mg/kg/day (inactive)
same,TD50,"rat, strain Osborne-Mendel, males, in feed, site: any site (literature study), lesion: several types, types named in the paper, dosed 117 weeks, study length 117 weeks",198 mg/kg/day (inactive)
same,carcinogen call,"rat, strain Osborne-Mendel, males, in feed, site: liver, lesion: one or several types, types not named, dosed 104 weeks, study length 104 weeks",negative (inactive)
same,carcinogen call,"rat, strain Osborne-Mendel, males, in feed, site: liver, lesion: one or several types, types not named, dosed 117 weeks, study length 117 weeks",negative (inactive)
same,TD50,"rat, strain Sprague-Dawley, both sexes, in feed, site: liver, lesion: hyperplastic nodule, dosed 104 weeks, study length 104 weeks",760 mg/kg/day
same,TD50,"rat, strain Wistar/FDRL, both sexes, in feed, site: bile duct, lesion: adenoma, dosed 104 weeks, study length 104 weeks",397 mg/kg/day
same,TD50,"rat, strain Wistar/FDRL, both sexes, in feed, site: liver, lesion: hepatocellular carcinoma, dosed 104 weeks, study length 104 weeks",1000 mg/kg/day
same,TD50,"rat, strain Wistar/FDRL, both sexes, in feed, site: liver, lesion: hyperplastic nodule, dosed 104 weeks, study length 104 weeks",79.9 mg/kg/day
CCN(CC)CCOc1ccc(C(=C(Cl)c2ccccc2)c2ccccc2)cc1,TD50,"mouse, strain C57L/He x 129/Rr x C3HeB/De x SWR/Ly, females, by gavage, site: any site (literature study), lesion: several types, types named in the paper, dosed 69 weeks, study length 69 weeks",3.62 mg/kg/day (inactive)
same,carcinogen call,"mouse, strain C57L/He x 129/Rr x C3HeB/De x SWR/Ly, females, by gavage, site: any site (literature study), lesion: several types, types named in the paper, dosed 69 weeks, study length 82 weeks",negative (inactive)
same,TD50,"mouse, strain C57L/He x 129/Rr x C3HeB/De x SWR/Ly, females, by gavage, site: lung, lesion: one or several types, types not named, dosed 69 weeks, study length 69 weeks",5 mg/kg/day (inactive)
NC(=S)NNC=O,TD50,"rat, strain Sprague-Dawley, females, in feed, site: any site (literature study), lesion: several types, types named in the paper, dosed 46 weeks, study length 64 weeks",140 mg/kg/day (inactive)
CCN(N=O)C(=O)NCCO,TD50,"hamster, strain Syrian Golden, females, by gavage, site: cervix uteri, lesion: one or several types, types not named, dosed 30 weeks, study length 75 weeks",1.04 mg/kg/day
same,TD50,"hamster, strain Syrian Golden, females, by gavage, site: forestomach, lesion: benign tumor, dosed 30 weeks, study length 75 weeks",1.76 mg/kg/day
same,TD50,"hamster, strain Syrian Golden, females, by gavage, site: liver, lesion: cholangioma, dosed 30 weeks, study length 75 weeks",27.5 mg/kg/day
same,TD50,"hamster, strain Syrian Golden, females, by gavage, site: spleen, lesion: all vascular tumors, dosed 30 weeks, study length 75 weeks",3.05 mg/kg/day
same,TD50,"rat, strain Fischer 344, females, in drinking water, site: mammary tissue, wider than the gland, lesion: carcinoma, dosed 30 weeks, study length 104 weeks",0.748 mg/kg/day
same,TD50,"rat, strain Fischer 344, females, in drinking water, site: nervous system, lesion: one or several types, types not named, dosed 30 weeks, study length 104 weeks",0.714 mg/kg/day
same,TD50,"rat, strain Fischer 344, females, in drinking water, site: skin, lesion: one or several types, types not named, dosed 30 weeks, study length 104 weeks",0.956 mg/kg/day
same,TD50,"rat, strain Fischer 344, females, in drinking water, site: uterus, lesion: one or several types, types not named, dosed 30 weeks, study length 104 weeks",0.972 mg/kg/day
same,TD50,"rat, strain Fischer 344, males, in drinking water, site: lung, lesion: one or several types, types not named, dosed 30 weeks, study length 104 weeks",0.39 mg/kg/day
same,TD50,"rat, strain Fischer 344, males, in drinking water, site: nervous system, lesion: one or several types, types not named, dosed 30 weeks, study length 104 weeks",0.769 mg/kg/day
same,TD50,"rat, strain Fischer 344, males, in drinking water, site: skin, lesion: one or several types, types not named, dosed 30 weeks, study length 104 weeks",0.401 mg/kg/day
same,TD50,"rat, strain Fischer 344, males, in drinking water, site: tunica vaginalis, lesion: mesothelioma, dosed 30 weeks, study length 104 weeks",0.226 mg/kg/day
CCOc1ccc(NC(N)=O)cc1,TD50,"rat, strain Osborne-Mendel, both sexes, in feed, site: liver, lesion: several types, types named in the paper, dosed 104 weeks, study length 104 weeks",537 mg/kg/day
CC1=C(C)C(=O)C(C(CCCCCC(=O)O)c2ccccc2)=C(C)C1=O (stereo not given),carcinogen call,"rat, strain Fischer 344/Jcl, females, in feed, site: liver, lesion: one or several types, types not named, dosed 52 weeks, study length 52 weeks",negative (inactive)
same,carcinogen call,"rat, strain Fischer 344/Jcl, males, in feed, site: liver, lesion: one or several types, types not named, dosed 52 weeks, study length 52 weeks",negative (inactive)
COP(=S)(OC)Oc1ccc([N+](=O)[O-])cc1,carcinogen call,"mouse, strain B6C3F1, females, in feed, site: any site (literature study), lesion: several types, types named in the paper, dosed 102 weeks, study length 102 weeks",negative (inactive)
same,TD50,"mouse, strain B6C3F1, females, in feed, site: lung, lesion: alveolar/bronchiolar adenoma + alveolar/bronchiolar carcinoma, dosed 102 weeks, study length 102 weeks",125 mg/kg/day
same,carcinogen call,"mouse, strain B6C3F1, males, in feed, site: any site (literature study), lesion: several types, types named in the paper, dosed 102 weeks, study length 102 weeks",negative (inactive)
same,TD50,"mouse, strain B6C3F1, males, in feed, site: lung, lesion: alveolar/bronchiolar adenoma + alveolar/bronchiolar carcinoma, dosed 102 weeks, study length 102 weeks",58.1 mg/kg/day
same,carcinogen call,"rat, strain Fischer 344, females, in feed, site: any site (literature study), lesion: several types, types named in the paper, dosed 105 weeks, study length 105 weeks",negative (inactive)
same,carcinogen call,"rat, strain Fischer 344, males, in feed, site: any site (literature study), lesion: several types, types named in the paper, dosed 105 weeks, study length 105 weeks",negative (inactive)
O=P(OC(CCl)CCl)(OC(CCl)CCl)OC(CCl)CCl,TD50,"rat, strain Charles River CD (Sprague-Dawley), females, in feed, site: adrenal gland, lesion: cortical adenoma, dosed 104 weeks, study length 104 weeks",192 mg/kg/day
same,TD50,"rat, strain Charles River CD (Sprague-Dawley), females, in feed, site: kidney, lesion: cortical adenoma, dosed 104 weeks, study length 104 weeks",68.6 mg/kg/day
same,TD50,"rat, strain Charles River CD (Sprague-Dawley), females, in feed, site: liver, lesion: hepatocellular adenoma, dosed 104 weeks, study length 104 weeks",324 mg/kg/day
same,TD50,"rat, strain Charles River CD (Sprague-Dawley), females, in feed, site: liver, lesion: hepatocellular carcinoma, dosed 104 weeks, study length 104 weeks",721 mg/kg/day
same,TD50,"rat, strain Charles River CD (Sprague-Dawley), females, in feed, site: liver, lesion: several types, types named in the paper, dosed 104 weeks, study length 104 weeks",206 mg/kg/day
same,TD50,"rat, strain Charles River CD (Sprague-Dawley), males, in feed, site: kidney, lesion: cortical adenoma, dosed 104 weeks, study length 104 weeks",53.1 mg/kg/day
same,TD50,"rat, strain Charles River CD (Sprague-Dawley), males, in feed, site: liver, lesion: hepatocellular adenoma, dosed 104 weeks, study length 104 weeks",252 mg/kg/day
same,TD50,"rat, strain Charles River CD (Sprague-Dawley), males, in feed, site: liver, lesion: hepatocellular carcinoma, dosed 104 weeks, study length 104 weeks",390 mg/kg/day
same,TD50,"rat, strain Charles River CD (Sprague-Dawley), males, in feed, site: liver, lesion: several types, types named in the paper, dosed 104 weeks, study length 104 weeks",144 mg/kg/day
same,TD50,"rat, strain Charles River CD (Sprague-Dawley), males, in feed, site: testis, lesion: interstitial-cell tumor, dosed 104 weeks, study length 104 weeks",35 mg/kg/day
Cc1c(N)cccc1N,TD50,"mouse, strain B6C3F1, females, in feed, site: any site (literature study), lesion: several types, types named in the paper, dosed 103 weeks, study length 105 weeks",75.9 mg/kg/day
same,TD50,"mouse, strain B6C3F1, females, in feed, site: liver, lesion: hepatocellular adenoma + hepatocellular carcinoma + neoplastic nodule, dosed 103 weeks, study length 105 weeks",129 mg/kg/day
same,TD50,"mouse, strain B6C3F1, females, in feed, site: liver, lesion: hepatocellular carcinoma, dosed 103 weeks, study length 105 weeks",181 mg/kg/day (inactive)
same,TD50,"mouse, strain B6C3F1, males, in feed, site: all sites, lesion: lymphoma, dosed 103 weeks, study length 104 weeks",20.5 mg/kg/day (inactive)
same,carcinogen call,"rat, strain Fischer 344, females, in feed, site: any site (literature study), lesion: several types, types named in the paper, dosed 103 weeks, study length 105 weeks",negative (inactive)
same,TD50,"rat, strain Fischer 344, females, in feed, site: liver, lesion: hepatocellular adenoma + hepatocellular carcinoma + neoplastic nodule, dosed 103 weeks, study length 105 weeks",455 mg/kg/day
same,TD50,"rat, strain Fischer 344, males, in feed, site: liver, lesion: hepatocellular adenoma + hepatocellular carcinoma + neoplastic nodule, dosed 103 weeks, study length 104 weeks",117 mg/kg/day
same,TD50,"rat, strain Fischer 344, males, in feed, site: liver, lesion: hepatocellular carcinoma + neoplastic nodule, dosed 103 weeks, study length 104 weeks",117 mg/kg/day (inactive)
same,TD50,"rat, strain Fischer 344, males, in feed, site: pancreatic islets, lesion: islet-cell adenoma, dosed 103 weeks, study length 104 weeks",140 mg/kg/day
CNCc1ccc(CSCCNC(=NCC(O)c2ccc(O)cc2)NS(C)(=O)=O)o1 (stereo not given),carcinogen call,"rat, strain Jcl:SD, females, by gavage, site: liver, lesion: one or several types, types not named, dosed 52 weeks, study length 52 weeks",negative (inactive)
same,carcinogen call,"rat, strain Jcl:SD, females, by gavage, site: liver, lesion: one or several types, types not named, dosed 52 weeks, study length 56 weeks",negative (inactive)
same,carcinogen call,"rat, strain Jcl:SD, males, by gavage, site: liver, lesion: one or several types, types not named, dosed 52 weeks, study length 52 weeks",negative (inactive)
same,carcinogen call,"rat, strain Jcl:SD, males, by gavage, site: liver, lesion: one or several types, types not named, dosed 52 weeks, study length 56 weeks",negative (inactive)
